Data as given in patent US10858364B2, “Imidazopyrazine inhibitors of Bruton's tyrosine kinase” (Acerta Pharma B.V., priority 2016, dated 2020).

How the values were obtained:
[1] = test system: CYP3A4; assay: CYP induction, CYP3A4; type: in vitro ADME
[2] = target: T1, BMX (Homo sapiens (Human), UniProt P51813); assay: DiscoveRx Kd dose response, BMX; type: binding
Method: (§1) Kinase profiling was performed with M27 was done at DiscoveRx at a single dose of 1 μM on all available kinases (KINOMEscan). The overall kinase selectivity score is in Table 6. […] Kinases inhibited >65% at 1 μM for M27 were followed up with a dose response at DiscoveRx. The M27 had IC50 values <1 μM for almost the same set of kinases with exception of TXK, but with additional inhibition of BRK (PTK6).

[3] = target: T1, BMX; assay: BMX Z'-LYTE kinase assay; type: biochemical; conditions: 1 h pre-incubation, Km ATP
Method: BMX, TXK, EGFR, ERBB2, ERBB4, JAK3, BLK kinase activity was measured using the Z′-LYTE assay at Thermo Fisher. A 10-point dose response (final concentration in assay ranged from 10 μM to 0.5 nM in 3-fold dilution per dilution step) was generated with 1 h incubation of the test compound with the kinase prior to initiation of the kinase reaction by the addition of ATP. ATP concentration in the assay was Km ATP for the different kinases. IC50 values are determined by curve fitting of the experimental results at Thermo Fisher.

[4] = test system: CYP3A4/5; assay: CYP inhibition, CYP3A4/5; type: in vitro ADME
[5] = Clinical pharmacokinetics of acalabrutinib and its major metabolite; type: in vivo, human; conditions: human, in vivo; single oral dose of 100 mg acalabrutinib; read-out: median terminal elimination half-life (t½) (converted)
Excerpt: The compound of Formula (I) was identified as the major metabolite in plasma with a geometric mean exposure (AUC) approximately 2- to 3-fold higher than the exposure of acalabrutinib.
Acalabrutinib and the major metabolite form a covalent bond with a cysteine residue in the BTK active site, leading to inhibition of BTK enzymatic activity. Acalabrutinib binding with the cysteine residue occurs rapidly and irreversibly and provides high target occupancy at steady state.

[6] = target: TEC (Homo sapiens (Human), UniProt P42680); assay: TEC LanthaScreen assay; type: binding; conditions: 2h incubation
Method: TEC enzyme activity is measured using the LanthaScreen assay from ThermoFisher as outlined below.
TEC enzyme (LifeTech # PV3269) and Eu-anti-HIS antibody (Invitrogen # PV5596) are mixed and diluted in kinase buffer (50 mM Hepes pH 7.5+10 mM MgCl2+1 mM EGTA+0.01% Brij-35) to 3 and 6 nM, respectively. Final concentration in the assay for enzyme and antibody are 1 and 2 nM, respectively.
Tracer (Kinase Tracer 178, Invitrogen # PV5593) is diluted in Kinase buffer to 3 nM. Final concentration in the assay is 1 nM.
Serial dilutions log 10 from 1 mM to 3.16 nM of test compounds are made in 100% DMSO. The dilutions in DMSO are then diluted 33-fold in Kinase buffer (50 mM Hepes pH 7.5+10 mM MgCl2+1 mM EGTA+0.01% Brij-35).
The assay is performed as follows: 5 μL/well of TEC enzyme and EU-anti-His antibody dilution is mixed with 5 μL/well tracer dilution and 5 μL/well of compound dilution in Kinase buffer. Final compound concentration in the assay ranged from 10 μM to 0.316 nM, with 1% DMSO final concentration in assay. Following a 2h incubation at room the TR-FRET signal at 615 nm and 665 nm is read. The ratio 665/615 was used to calculate values expressed as percentage of the difference in readout (S/N) of the controls with and without Tracer. IC50 values were determined by curve fitting of the experimental results in Dotmatics.

[7] = target: CYP2D6 (Homo sapiens (Human), UniProt P10635); assay: CYP inhibition, CYP2D6; type: in vitro ADME
[8] = test system: all available kinases (KINOMEscan); assay: KINOMEscan (DiscoveRx scanMAX) profiling, selectivity score; type: binding; conditions: single dose of 1 μM
Method: as §1

T1 sequence (P51813 whole entry): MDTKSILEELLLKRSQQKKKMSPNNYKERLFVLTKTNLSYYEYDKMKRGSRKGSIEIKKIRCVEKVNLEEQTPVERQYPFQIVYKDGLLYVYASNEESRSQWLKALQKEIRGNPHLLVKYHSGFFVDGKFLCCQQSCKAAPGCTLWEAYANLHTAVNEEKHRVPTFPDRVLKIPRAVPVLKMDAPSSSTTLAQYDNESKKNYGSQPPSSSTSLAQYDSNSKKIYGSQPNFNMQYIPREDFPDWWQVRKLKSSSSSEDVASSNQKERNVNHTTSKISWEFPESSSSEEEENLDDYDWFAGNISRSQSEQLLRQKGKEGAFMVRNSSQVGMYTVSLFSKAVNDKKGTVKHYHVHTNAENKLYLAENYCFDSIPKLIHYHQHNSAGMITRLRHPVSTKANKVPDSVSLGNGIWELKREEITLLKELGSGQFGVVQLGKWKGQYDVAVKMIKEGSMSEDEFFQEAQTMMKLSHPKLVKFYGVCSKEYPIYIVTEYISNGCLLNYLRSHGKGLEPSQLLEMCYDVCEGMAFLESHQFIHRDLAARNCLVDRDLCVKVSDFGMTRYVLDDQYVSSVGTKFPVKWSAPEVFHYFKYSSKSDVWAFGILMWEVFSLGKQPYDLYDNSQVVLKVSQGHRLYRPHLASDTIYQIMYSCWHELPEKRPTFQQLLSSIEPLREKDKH
CYP2D6, sequence (P10635 whole entry): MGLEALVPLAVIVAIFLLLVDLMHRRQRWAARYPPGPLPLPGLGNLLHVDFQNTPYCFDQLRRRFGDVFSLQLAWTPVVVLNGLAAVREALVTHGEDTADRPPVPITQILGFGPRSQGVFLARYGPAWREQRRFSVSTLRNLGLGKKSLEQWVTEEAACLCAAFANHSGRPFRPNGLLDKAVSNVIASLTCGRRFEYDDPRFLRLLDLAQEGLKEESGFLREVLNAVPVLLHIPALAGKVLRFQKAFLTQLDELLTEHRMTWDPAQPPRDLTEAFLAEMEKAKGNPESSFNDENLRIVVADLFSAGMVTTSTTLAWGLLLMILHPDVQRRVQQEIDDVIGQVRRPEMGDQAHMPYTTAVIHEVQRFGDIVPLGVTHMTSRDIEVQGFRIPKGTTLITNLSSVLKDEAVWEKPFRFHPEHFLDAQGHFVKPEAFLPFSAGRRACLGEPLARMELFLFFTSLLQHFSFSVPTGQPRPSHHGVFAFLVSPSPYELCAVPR
TEC, sequence (P42680 whole entry): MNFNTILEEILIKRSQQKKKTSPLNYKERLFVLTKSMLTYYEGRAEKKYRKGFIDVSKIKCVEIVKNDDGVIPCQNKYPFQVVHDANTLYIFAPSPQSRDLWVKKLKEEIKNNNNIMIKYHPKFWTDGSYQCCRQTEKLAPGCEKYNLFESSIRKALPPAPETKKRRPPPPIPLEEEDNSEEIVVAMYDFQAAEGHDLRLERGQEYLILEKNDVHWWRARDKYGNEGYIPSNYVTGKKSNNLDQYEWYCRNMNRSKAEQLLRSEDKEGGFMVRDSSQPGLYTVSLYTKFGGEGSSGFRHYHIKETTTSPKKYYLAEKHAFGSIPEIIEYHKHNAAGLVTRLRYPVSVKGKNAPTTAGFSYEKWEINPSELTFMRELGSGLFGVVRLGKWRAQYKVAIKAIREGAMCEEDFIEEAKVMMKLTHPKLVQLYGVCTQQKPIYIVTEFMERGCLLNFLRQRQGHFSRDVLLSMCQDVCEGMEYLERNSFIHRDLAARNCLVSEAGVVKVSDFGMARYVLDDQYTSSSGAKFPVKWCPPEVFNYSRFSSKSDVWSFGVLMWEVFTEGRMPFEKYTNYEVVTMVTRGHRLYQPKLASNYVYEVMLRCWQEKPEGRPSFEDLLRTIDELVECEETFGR

CYP3A4 induction [1]: weak inducer | Kd [2]: 0.19 µM | IC50 [3]: 0.015 ± 0.002 µM | CYP3A4/5 inhibition [4]: does not inhibit | half-life [5]: 6.9 h | IC50 [6]: 0.345 ± 0.034 µM | CYP2D6 inhibition [7]: does not inhibit
SMILES: CC#CC(=O)NCCCC(=O)c1nc(-c2ccc(C(=O)Nc3ccccn3)cc2)c2c(N)nccn12 [Formula (I), 4-(8-amino-3-(4-(but-2-ynamido)butanoyl)imidazo[1,5-a]pyrazin-1-yl)-N-(pyridin-2-yl)benzamide]
Selectivity Score S(10) [8]: 0.005 | Selectivity Score S(35) [8]: 0.013
